Consider one compound from article PMC8229129, “Local Colonic Administration of a Serine Protease Inhibitor Improves Post-Inflammatory Visceral Hypersensitivity in Rats” (Pharmaceutics, 2021).

In one assay the test system is uPA. Set-up: method as in PMID 29911328. To be noted: in vitro; cited from earlier work.
In assay [1] the test system is MPO activity in colonic tissue. Kind of assay: Colonic myeloperoxidase (MPO) activity. The settings on record: for MPO Activity, Day of VMR: mean ± SEM, n = 8, significant effect of treatment. The class given is in vivo, Sprague–Dawley rats. The method, then: Finally, colonic MPO activity was determined in a full-thickness colonic segment (±30 mg) as published previously. MPO is a pro-inflammatory enzyme stored in the azurophilic granules of neutrophilic granulocytes and monocytes. […] One unit (U) of MPO activity is defined as the amount of enzyme required to convert 1 µmol H2O2 to H2O within 1 min at 25 °C and is expressed as U/g tissue.

Assay [2] concerns visceral hypersensitivity in post-colitis rats. Kind of assay: Visceromotor response (VMR) to colorectal distensions, TNBS-induced post-colitis rat model for visceral hypersensitivity. The class given is in vivo, Sprague–Dawley rats. As to the method:
A well-characterized 2,4,6-trinitrobenzene sulfonic acid (TNBS)-induced post-colitis rat model for visceral hypersensitivity was used in this study. Details on the procedures are given in subsequent paragraphs. After acclimation, an enema containing TNBS was used to induce a mild colitis, whereas control rats received an enema containing saline. The presence and severity of acute colitis were scored colonoscopically 3 days later. Subsequently, a colonoscopy was performed starting from day 10 and repeated every 4 days until complete mucosal healing was observed. Then, electromyographic (EMG) electrodes were implanted in the abdominal musculature of the rat and exteriorized at the scapular region. Three days later, the serine protease inhibitor UAMC-00050 or its vehicle was given intracolonically. Thirty minutes after the single administration of the drug, visceral sensitivity to colorectal distensions and colonic compliance were evaluated. Finally, animals were sacrificed (exsanguination under pentobarbital anesthesia, 45 mg/kg i.p.) and inflammatory parameters (colonoscopy, macroscopy, microscopy, and myeloperoxidase (MPO) activity) were scored to confirm the post-inflammatory state of the animal and to evaluate effects of the compound on mucosal inflammation. Colonic and fecal samples were taken for the assessment of proteolytic activities using selective fluorogenic substrates. Pharmacokinetic experiments were performed in a separate group of rats.
After an overnight fast with free access to water, rats were anesthetized with a mixture of ketamine (35 mg/kg, i.p.) and xylazine (5 mg/kg, i.p.) and placed in a Trendelenburg position. A flexible catheter (18 G, length 4.5 cm) was used to administer a 250 µL TNBS-enema (4 mg in 50% ethanol) or saline in the distal colon of randomized colitis and control rats, respectively, according to previously published protocols. Afterwards, animals were allowed to recover in their own cages with free access to water and food.
(§1) The serine protease inhibitor UAMC-00050 (0.1–1.0–2.5–5.0 mg/kg, dissolved in a volume of 200 µL) or its vehicle (5% DMSO in H2O) was delivered colonically using a flexible catheter (18 G, length 4.5 cm) under short-lasting isoflurane anesthesia (5.0% induction, 1.5% maintenance). To prevent expulsion of the enema, animals were held in a Trendelenburg position for 90 s. Doses for intracolonic administration were based on the doses known to be effective via an i.p. administration and adapted afterwards based on preliminary results.
Contractions of the abdominal musculature in response to isobaric colorectal distensions, a nociceptive reflex known as the visceromotor response (VMR), were used to quantify colonic mechanosensitivity in vivo [24, 28]. To this end, 2 Teflon-coated EMG electrodes (AISI 316 stainless steel, ø 0.125 mm, Advent Research Material Ltd., Oxford, UK) were sutured into the abdominal external oblique muscle, in close proximity to the right inguinal ligament and 5 mm apart. Then, the electrodes were tunneled, subcutaneously towards the base of the neck, exteriorized, and fixated with a plastic cap for future access. Rats were single-housed during their 3-day recovery after the surgical procedure to protect the electrodes and plastic cap from damage.
On the day of the VMR experiment, a lubricated balloon (length 5.0 cm) was introduced into the colorectum of the conscious rat and connected to a barostat, allowing phasic isobaric colonic distensions (Distender Series IIR Barostat, G&J Electronics, Toronto, ON, Canada). EMG electrodes were attached to a data acquisition system and a standardized, pressure-controlled phasic distension protocol was used to expand the balloon (20 s distensions of 10–20–30–40–60 mmHg, 4 min interval). […]

The subject of assay [3] is trypsin-like activity in colonic tissue. Kind of assay: Trypsin-like activity in colonic tissue after intracolonic administration (fluorogenic substrates). The class given is in vivo, Sprague–Dawley rats. To be noted: post-colitis rats, 5 mg/kg intracolonic, colon harvested 90 min after administration, median (IQR), n = 12; vehicle 1.08 (1.19), p < 0.01. As to the method:
as §1
Trypsin-like, chymotrypsin-like, cathepsin G, elastase-like, and kallikrein activities were determined in colon tissue and fecal samples to profile serine protease activity. […]
Boc-Gln-Ala-Arg-AMC (75 µM) and n-Tosyl-Gly-Pro-Arg-AMC (100 µM) in 50 mM Tris-HCl pH 8.0 containing 120 mM NaCl were used to measure the trypsin-like activity. […] The fluorescence was measured during 20 min at 37 °C on a Tecan Infinite F200 Pro microtiter plate reader. The other activities were assessed in a similar assay, using the substrates mentioned below. Chymotrypsin-like and kallikrein activity were measured with Suc-Ala-Ala-Pro-Phe-AMC (0.45 mM) and H-Pro-Phe-Arg-AMC (0.45 mM), respectively. Elastase-like activity was measured using two assays, one using Suc-Ala-Ala-Pro-Val-AMC as a substrate and the other using Suc-Ala-Ala-Ala-AMC (both 0.45 mM). […]

For the next assay, the target named is chymotrypsin (Bos taurus, UniProt P00766). Kind of assay: Inhibition of chymotrypsin by UAMC-00050 (IC50). The class given is biochemical. To be noted: in vitro. As to the method: Here, the potency of UAMC-00050 to inhibit two other serine proteases, chymotrypsin and pancreatic elastase, with specificity was determined.

Molecules are shown by their SMILES.

Regarding `CC(=O)Nc1ccc(OP(=O)(Oc2ccc(NC(C)=O)cc2)C(Cc2ccc(N=C(N)N)cc2)NC(=O)OCc2ccccc2)cc1.Cl` (stereo not drawn) [UAMC-00050], the “inhibition of uPA” value in the assay on uPA is listed as “efficiently inhibits”. Further, the “MPO Activity, Day of VMR” value in assay [1] (control rats, 5.0 mg/kg intracolonic, vehicle 0.3 ± 0.1) came to 0.6 ± 0.2 U/g tissue; in assay [1] (post-colitis rats, 0.1 mg/kg intracolonic, vehicle 0.3 ± 0.2), 2.0 ± 0.7 U/g tissue; in assay [1] (post-colitis rats, 1.0 mg/kg intracolonic, vehicle 0.3 ± 0.2) it was 2.0 ± 0.5 U/g tissue; in assay [1] (post-colitis rats, 2.5 mg/kg intracolonic, vehicle 0.3 ± 0.2), 2.1 ± 0.5 U/g tissue; in assay [1] (post-colitis rats, 5.0 mg/kg intracolonic, vehicle 0.3 ± 0.2) it was 1.7 ± 0.5 U/g tissue. In addition, in assay [1] (single intracolonic administration, both control and post-colitis animals), the “Effect on colonic MPO activity” value is on record as “increased”. For the same compound, the “Effect on visceral sensitivity (VMR)” value in assay [2] (control rats, 5.0 mg/kg single intracolonic administration) is “no changes in visceral sensitivity”; in assay [2] (post-colitis rats, 0.1 mg/kg single intracolonic administration, 30 min before), “attenuated visceral sensitivity at 30 and 40 mmHg”; in assay [2] (post-colitis rats, 1.0 mg/kg single intracolonic administration, 30 min before) it was “decreased visceral sensitivity at 20 mmHg”; in assay [2] (post-colitis rats, 2.5 mg/kg single intracolonic administration, 30 min before), “completely restored sensitivity to normal values”; in assay [2] (post-colitis rats, 5.0 mg/kg single intracolonic administration, 30 min before), “VMRs that were even lower than those in control rats”. Further, the “Dose required to obtain complete reversal of visceral hypersensitivity” value in assay [2] (post-colitis rats, intracolonic) is 2.5 mg/kg. The “Trypsin-like activity in colonic tissue (Tos-Gly-Pro-Arg-AMC)” value in assay [3] is recorded as 0.23 (0.18) U/g. The compound further displayed an IC50 at chymotrypsin greater than 10 µM.

A word on the IC50: it is the midpoint of a concentration-inhibition curve. Read a high IC50 as a need for much substance.
